Assay results from article PMC5727842, “Antioxidant and Antidiabetic Effects of Flavonoids: A Structure-Activity Relationship Based Study” (BioMed Research International, 2017).
pIC50: −log10 of the molar value. In brackets after ≈: the same amount, converted by molar mass.

Assays:
[1] = Rapid screening of radical scavenging activity by dot blot assay (DPPH staining); details: silica sheet stained with DPPH in MeOH, dilutions from 1000 μg/mL
Protocol: An aliquot (20 μL) of each dilution of each group was carefully loaded on a […] TLC plate and allowed to dry for 10 min. Drops of each sample were loaded in the order of decreased concentration along the 16 columns. The staining of the silica plate was based on the procedure of Soler-Rivas et al.. […] The intensity of the yellow color depends upon the amount and nature of radical scavenger present in the flavonoids.

[2] = target: T1, xanthine oxidase from buttermilk (Bos taurus, UniProt P80457); experiment: Xanthine oxidase inhibitory assay (XOI); assay type: biochemical; details: for xanthine oxidase inhibitory effect (in words): discussion; for pIC50: xanthine oxidase inhibition, 295 nm, mean ± SEM (n = 3), NA: not active
T1 construct: 0.3 U/mL enzymes (xanthine oxidase from buttermilk); purchased Sigma-Aldrich (Singapore); host or cells: buttermilk (natural source)
Protocol: XO catalyzes the oxidation of hypoxanthine to xanthine and subsequently to uric acid. The inhibition of XO reduces both vascular oxidative stress and circulating levels of uric acid. This assay is based on the fact that the superoxide anions are generated by the xanthine. The xanthine oxidase inhibitory activity was measured spectrophotometrically (Tecan NanoQuant Infinite M200, Switzerland) at 295 nm under aerobic condition with slight modification. The reaction mixture contained 50 mM phosphate buffer (pH 7.5), 0.15 mM xanthine (substrate), and 0.3 U/mL enzymes (xanthine oxidase from buttermilk). Samples were prepared by dissolving 1 mg in 5% DMSO in MeOH which gives sample concentration of 144.0 μg/mL in assay. […] The absorption increment at 295 nm indicates the formation of […] of uric acid/min at 25°C. […] All determination was done in triplicate and half maximal concentration (IC50) values were calculated from the percentage of inhibition. XO inhibition activity was expressed as the percentage inhibition of XO as follows:(3) % of inhibition=AbsA−B−C−D/AbsA−B×100, where A is the negative control with B as the blank of A which is without the enzyme and the sample while C is the activity of the sample with enzyme with D as the blank of the sample without enzyme.

[3] = Ferric reducing antioxidant power (FRAP); details: for FRAP (AAE μg): ascorbic acid equivalent, mean ± SEM (n = 3), Table 2
Protocol: This assay was based on the reduction of the ferric tripyridyltriazine (Fe III-TPTZ) complex to the ferrous ion (Fe II) at a low pH forming an intense blue color. In the FRAP assay, compounds that are rich in antioxidant effect exert their action by breaking the free radical chain by donating a hydrogen atom. Briefly, ferric reducing antioxidant power (FRAP) reagent (2.5 mL of a 10 mM TPTZ solution in 40 mM HCl, 2.5 mL of 20 mM FeCl3, and 25 mL of 0.1 M acetate buffer pH 3.6) was prepared and incubated for 10 min at 37°C. Then 20 μL of each compound and ascorbic acid (standard) and 40 μL of FRAP reagent were added to 140 μL of distilled water in a 96-well plate producing a blue-colored solution. The solutions were kept at room temperature for 20 min in the dark and then measured at 593 nm with a microplate reader (Tecan, Switzerland) using a reagent blank composed of 40 μL of FRAP reagents in 200 μL of distilled water. A calibration curve was prepared with a serial dilution of ascorbic acid (standard). The total antioxidant capacity was calculated by interpolating the measured absorbance of the calibration curve and expressed as ascorbic acid equivalents. The results were corrected for dilution and expressed as AAE μg of ascorbic acid/g.

[4] = target: α-glucosidase from Saccharomyces cerevisiae; experiment: α-Glucosidase inhibitory assay; assay type: biochemical; details: Table 3; mean ± SEM (n = 3); NA: not active
Protocol: α-Glucosidase inhibitory activity of the flavonoids was carried out according to the standard method with minor modification. […] A solution of 30 mM phosphate buffer (pH 6.5) was used to prepare stock solution of the sample to form a final concentration of 160 μg/mL. Then, 10 μL/well of sample was mixed with 15 μL/well of α-glucosidase from Saccharomyces cerevisiae (Megazyme, Ireland). 50 mM buffer (pH 6.5) was used to prepare the enzyme solution. Then, 115 μL/well of 30 mM buffer (pH 6.5) was added and incubated for 5 min at room temperature. Then, 75 μL/well of PNP-glucoside was added to initiate reaction and incubated at room temperature for 15 min. Finally, about 50 μL glycine at pH 10 was added to stop the reaction. The final volume of 250 μL of compound, positive control, enzyme, 30 mM buffer, and substrate was located in 96-well microplate. The absorbance (Abs) was measured using microplate reader (Tecan NanoQuant Infinite M200, Switzerland) at 405 nm to represent the amount of p-nitrophenol released from PNP-glucoside. […] The equation given below was used to calculate the inhibitory activity (%):(4) Inhibitory activity%=Abs control−Abs sample/Abs control×100%.
Tested on yeast α-glycosidase, the reaction is initiated by reacting the inhibitor (sample) with the α-glycosidase enzyme that competes with […] for the binding site, thus releasing ρ-nitrophenol which was measured in the assay.

[5] = target: T2, DPP-4 (Homo sapiens, UniProt P27487); experiment: Dipeptidyl peptidase IV (DPP-4) inhibitory assay; assay type: biochemical; details: Table 3; mean ± SEM (n = 3); NA: not active
T2 construct: purchased Cayman (Michigan, USA)
Protocol: Dipeptidyl peptidase (IV) inhibitors work by inhibiting the action of this enzyme, thereby prolonging the activity of incretins that play an important role in insulin secretion and blood glucose control regulation. DPP-4 inhibitory assay was performed as per the standard method (Cayman, USA). Firstly, 1 mg of sample was dissolved in 10% of DMSO and MeOH as the stock solution. For initial activity (100%), 10 μL of MeOH, 30 μL of diluted assay buffer, and 10 μL of diluted DPP-4 (Cayman, USA) were added to 96-well microplate. […] For background well, 10 μL of MeOH and 40 μL of diluted assay buffer were added. Then, 10 μL of prepared sample and 30 μL of diluted assay buffer were added with 10 μL of diluted DPP-4. After that, 50 μL of substrate solution was added to all wells to initiate the reaction and further incubated in the dark at 37°C for 30 min. Finally, plate was read at 360 nm of excitation wavelength and 465 nm of emission wavelength using fluorescence microplate reader (Perkin Elmer, Germany). All determinations were done in triplicate and half maximal concentration (IC50) values were calculated from the percentage of inhibition based on the linear regression analysis. The equation given below was applied to calculate the inhibitory activity (%):(5) Inhibitory activity%=Initial Activity−Sample/Initial Activity×100%.
For DPP-4 inhibitory assay, the reaction is based on the cleavage of the peptide bond by DPP releasing the free Gly-Pro-aminomethylcoumarin group, a fluorogenic substrate resulting in fluorescence excitation and emission.

T1 sequence (P80457 whole entry): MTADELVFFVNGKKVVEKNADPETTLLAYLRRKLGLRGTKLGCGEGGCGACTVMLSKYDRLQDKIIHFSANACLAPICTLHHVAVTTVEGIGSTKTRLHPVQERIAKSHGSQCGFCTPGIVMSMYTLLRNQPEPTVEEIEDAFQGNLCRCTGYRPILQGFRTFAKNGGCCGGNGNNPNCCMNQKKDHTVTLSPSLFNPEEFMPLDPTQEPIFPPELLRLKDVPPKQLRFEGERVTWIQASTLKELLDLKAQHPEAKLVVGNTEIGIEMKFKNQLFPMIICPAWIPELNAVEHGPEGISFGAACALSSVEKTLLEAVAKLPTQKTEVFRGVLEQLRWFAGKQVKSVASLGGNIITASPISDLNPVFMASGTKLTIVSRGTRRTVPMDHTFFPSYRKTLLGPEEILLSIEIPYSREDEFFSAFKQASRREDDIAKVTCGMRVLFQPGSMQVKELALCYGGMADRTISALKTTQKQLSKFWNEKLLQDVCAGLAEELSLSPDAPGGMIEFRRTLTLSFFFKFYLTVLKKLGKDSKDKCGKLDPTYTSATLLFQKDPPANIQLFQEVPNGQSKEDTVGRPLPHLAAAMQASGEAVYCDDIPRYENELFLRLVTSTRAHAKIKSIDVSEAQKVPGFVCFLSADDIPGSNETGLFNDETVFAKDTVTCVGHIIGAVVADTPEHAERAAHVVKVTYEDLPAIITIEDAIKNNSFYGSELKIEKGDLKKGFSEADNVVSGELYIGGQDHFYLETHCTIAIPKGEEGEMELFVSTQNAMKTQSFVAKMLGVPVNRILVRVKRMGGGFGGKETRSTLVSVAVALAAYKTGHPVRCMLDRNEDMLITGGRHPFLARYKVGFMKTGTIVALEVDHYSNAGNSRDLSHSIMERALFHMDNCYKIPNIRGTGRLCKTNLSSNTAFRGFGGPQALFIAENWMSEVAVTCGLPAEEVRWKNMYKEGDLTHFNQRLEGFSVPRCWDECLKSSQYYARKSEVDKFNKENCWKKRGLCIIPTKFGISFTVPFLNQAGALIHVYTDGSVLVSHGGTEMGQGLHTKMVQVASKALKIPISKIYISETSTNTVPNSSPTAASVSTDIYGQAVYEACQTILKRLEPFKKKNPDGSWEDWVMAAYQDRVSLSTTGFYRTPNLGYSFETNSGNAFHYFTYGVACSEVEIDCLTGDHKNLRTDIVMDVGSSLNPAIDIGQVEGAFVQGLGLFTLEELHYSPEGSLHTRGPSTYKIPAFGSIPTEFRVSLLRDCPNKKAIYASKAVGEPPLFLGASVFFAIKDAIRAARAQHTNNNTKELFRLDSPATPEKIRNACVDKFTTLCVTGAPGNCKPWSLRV
T2 sequence (P27487 whole entry): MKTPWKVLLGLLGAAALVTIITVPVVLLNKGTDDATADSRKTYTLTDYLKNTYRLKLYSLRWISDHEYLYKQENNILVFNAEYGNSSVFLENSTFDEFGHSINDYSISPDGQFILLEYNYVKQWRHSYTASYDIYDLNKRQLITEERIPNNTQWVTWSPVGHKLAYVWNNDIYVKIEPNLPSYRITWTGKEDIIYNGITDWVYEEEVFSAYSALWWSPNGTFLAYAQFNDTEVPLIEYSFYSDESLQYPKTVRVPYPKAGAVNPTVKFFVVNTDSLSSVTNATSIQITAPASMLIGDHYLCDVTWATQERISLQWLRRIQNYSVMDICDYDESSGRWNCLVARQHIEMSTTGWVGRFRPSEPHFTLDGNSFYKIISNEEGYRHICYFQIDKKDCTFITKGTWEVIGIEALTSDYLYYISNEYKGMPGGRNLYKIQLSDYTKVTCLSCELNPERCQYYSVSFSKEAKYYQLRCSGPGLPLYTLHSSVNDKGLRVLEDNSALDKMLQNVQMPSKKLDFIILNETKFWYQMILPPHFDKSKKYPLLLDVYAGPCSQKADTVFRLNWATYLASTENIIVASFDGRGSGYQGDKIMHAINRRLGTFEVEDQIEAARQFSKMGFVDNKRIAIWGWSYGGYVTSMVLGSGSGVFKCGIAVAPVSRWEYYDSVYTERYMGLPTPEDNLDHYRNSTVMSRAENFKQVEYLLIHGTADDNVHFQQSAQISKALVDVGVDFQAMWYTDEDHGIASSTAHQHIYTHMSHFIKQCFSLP

Row | Structure (SMILES) | radical scavenging activity by dot blot (intensity of yellow spots) [1] | xanthine oxidase inhibitory effect (in words) [2] | pIC50 [2] | FRAP (AAE μg) [3] | IC50 α-Glucosidase [4] | pIC50 [5] | FRAP antioxidant capacity [3]
1 | O=c1cc(-c2ccc(O)c(O)c2)oc2c(O)c(O)cc(O)c12 [Hypolaetin, 3′,4′,5,7,8-Pentahydroxyflavone] | strong radical scavenging activity | low xanthine oxidase inhibitory activity | < 3.48 | 177.37 ± 1.82^B AAE μg | 48.42 ± 9.71 µg/mL (≈ 160 µM) | 3.94 | –
2 | COc1cc(O)c2c(=O)cc(-c3ccccc3)oc2c1 [Techtochrysin, 5-Hydroxy-7-methoxyflavone] | intermediate radical scavenging activity | low xanthine oxidase inhibitory activity | < 3.43 | 11.49 ± 0.32^F AAE μg | >100^A µg/mg | < 3.43 | 11.49 ± 0.32 AAE μg of ascorbic acid/g
